Reference: ChEMBL document CHEMBL1201862, “PubChem BioAssay data set” (2004)
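Step 1: Grow cells in 96-well plates. Step 2: Expose to compound for 48 hours at 5 concentrations. Step 3: Interpolate endpoints linearly; if unreached, use highest concentration. Here, GI50 denotes the concentration required for 50% inhibition of growth.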 Activity calls are given as the source filed them. Rule as the data show it: active = GI50 up to about 1.1 µM and inactive = higher.

Assays:
Experiment in all cases: DTP human tumour cell line panel, 48 h
SK-MEL-28 = system: SK-MEL-28
SK-OV-3 = system: SK-OV-3
MDA-MB-231 = system: MDA-MB-231
OVCAR-5 = system: OVCAR-5
SK-MEL-5 = system: SK-MEL-5
OVCAR-8 = system: OVCAR-8
MDA-N = system: MDA-N
MOLT-4 = system: MOLT-4
SF-295 = system: SF-295
SN12C = system: SN12C
OVCAR-3 = system: OVCAR-3
HCT-116 = system: HCT-116
SNB-75 = system: SNB-75
HOP-92 = system: HOP-92
HOP-62 = system: HOP-62
U-251 = system: U-251
NCI-H460 = system: NCI-H460
NCI-H23 = system: NCI-H23
BT-549 = system: BT-549
UACC-62 = system: UACC-62

Measured: GI50

O=C1C(=c2cc3c(c4ccccc24)=NC24CCCCC2C(c2ccccc2)C=C(c2ccccc2)N34)C(=O)c2ccccc21 (stereo not drawn)
inactive: SK-MEL-28 47.2 µM | SK-OV-3 > 100 µM | MDA-MB-231 15.4 µM | OVCAR-5 > 100 µM | SK-MEL-5 26.4 µM | OVCAR-8 50.4 µM | MDA-N 36.9 µM | MOLT-4 16.6 µM | SF-295 > 100 µM | SN12C > 100 µM | OVCAR-3 22 µM | HCT-116 36.2 µM | SNB-75 54 µM | HOP-92 27.9 µM | HOP-62 74 µM | U-251 36.8 µM

COC(=O)c1c(O)ccc2c1c1c(n2C)C(=O)c2ccccc2C1=O
inactive: NCI-H460 8 µM | SK-MEL-28 32.7 µM | SK-OV-3 6.19 µM | MDA-MB-231 10 µM | OVCAR-5 85.3 µM | SK-MEL-5 30.9 µM | OVCAR-8 17.8 µM | MOLT-4 5.78 µM | SF-295 22.5 µM | SN12C 11.9 µM | NCI-H23 19.7 µM | OVCAR-3 35.3 µM | HCT-116 12.2 µM | SNB-75 2.48 µM | HOP-92 2.28 µM | HOP-62 14.8 µM | U-251 15.7 µM | BT-549 10.4 µM

C[C@H](c1ccccc1)N1C(=O)[C@@H](O)[C@H]1[C@H](CO)OCc1ccccc1
inactive: SK-MEL-28 > 100 µM | SK-OV-3 > 100 µM | MDA-MB-231 > 100 µM | UACC-62 > 100 µM | OVCAR-5 > 100 µM | SK-MEL-5 > 100 µM | OVCAR-8 > 100 µM | MDA-N > 100 µM | MOLT-4 > 100 µM | SF-295 95.3 µM | SN12C > 100 µM | NCI-H23 > 100 µM | OVCAR-3 > 100 µM | HCT-116 > 100 µM | SNB-75 > 100 µM | HOP-92 96.4 µM | HOP-62 > 100 µM | U-251 > 100 µM

N=C(N)/N=C(\N)Nc1cnccn1
inactive: SK-MEL-28 > 100 µM | SK-OV-3 > 100 µM | MDA-MB-231 > 100 µM | UACC-62 > 100 µM | SK-MEL-5 > 100 µM | OVCAR-8 > 100 µM | MDA-N > 100 µM | MOLT-4 > 100 µM | SF-295 > 100 µM | SN12C > 100 µM | NCI-H23 > 100 µM | OVCAR-3 > 100 µM | HCT-116 > 100 µM | SNB-75 > 100 µM | HOP-92 > 100 µM | HOP-62 > 100 µM | U-251 > 100 µM

Cc1cc2c(cc1Cl)SC(c1ccccc1)C(=O)NS2(=O)=O (stereo not drawn)
inactive: NCI-H460 30.3 µM | SK-MEL-28 34.8 µM | SK-OV-3 31.9 µM | MDA-MB-231 32.3 µM | OVCAR-5 45.9 µM | SK-MEL-5 21.6 µM | OVCAR-8 36.2 µM | MDA-N 34.1 µM | MOLT-4 26 µM | SF-295 28.3 µM | NCI-H23 24.4 µM | OVCAR-3 21.6 µM | HCT-116 20.5 µM | SNB-75 19.7 µM | HOP-92 30.5 µM | HOP-62 44.3 µM | U-251 23.1 µM

CCC(C(=O)C(=O)C(CC)P1(=O)OC(C)(C)CN1C(C)(C)C)P1(=O)OC(C)(C)CN1C(C)(C)C (stereo not drawn)
inactive: NCI-H460 > 100 µM | SK-MEL-28 > 100 µM | SK-OV-3 > 100 µM | MDA-MB-231 > 100 µM | UACC-62 > 100 µM | SK-MEL-5 > 100 µM | OVCAR-8 > 100 µM | MOLT-4 22.2 µM | SF-295 > 100 µM | SN12C > 100 µM | NCI-H23 > 100 µM | OVCAR-3 > 100 µM | HCT-116 > 100 µM | SNB-75 49.7 µM | HOP-92 45.9 µM | HOP-62 > 100 µM | U-251 > 100 µM | BT-549 > 100 µM

COc1ccc(N2C(=O)[C@@H](N=[N+]=[N-])[C@@H]2[C@H]2COC(C)(C)O2)cc1
inactive: NCI-H460 > 100 µM | SK-MEL-28 > 100 µM | SK-OV-3 > 100 µM | UACC-62 75 µM | OVCAR-5 > 100 µM | SK-MEL-5 > 100 µM | OVCAR-8 > 100 µM | MOLT-4 > 100 µM | SF-295 > 100 µM | SN12C > 100 µM | NCI-H23 > 100 µM | OVCAR-3 > 100 µM | HCT-116 > 100 µM | SNB-75 > 100 µM | HOP-92 > 100 µM | HOP-62 > 100 µM | U-251 > 100 µM

O=C(O)c1ccccc1CC(Cc1ccc2c(c1)CCC2)C(=O)O (stereo not drawn)
inactive: NCI-H460 > 100 µM | SK-MEL-28 > 100 µM | SK-OV-3 > 100 µM | MDA-MB-231 > 100 µM | OVCAR-5 > 100 µM | SK-MEL-5 > 100 µM | OVCAR-8 > 100 µM | MDA-N > 100 µM | MOLT-4 > 100 µM | SF-295 > 100 µM | SN12C > 100 µM | NCI-H23 > 100 µM | OVCAR-3 > 100 µM | HCT-116 > 100 µM | SNB-75 > 100 µM | HOP-92 > 100 µM | HOP-62 > 100 µM | U-251 > 100 µM

Brc1ccc(-c2cc(-c3ccc4c(c3)OCO4)c(-c3cccs3)n2Cc2ccccc2)cc1
inactive: NCI-H460 > 100 µM | SK-MEL-28 > 100 µM | SK-OV-3 > 100 µM | MDA-MB-231 > 100 µM | UACC-62 > 100 µM | SK-MEL-5 > 100 µM | OVCAR-8 > 100 µM | MDA-N > 100 µM | MOLT-4 > 100 µM | SF-295 > 100 µM | SN12C > 100 µM | HCT-116 > 100 µM | SNB-75 > 100 µM | HOP-62 > 100 µM | U-251 > 100 µM

CN(C)/C=N/c1ccc2nonc2c1
inactive: NCI-H460 > 100 µM | SK-MEL-28 > 100 µM | SK-OV-3 > 100 µM | MDA-MB-231 > 100 µM | UACC-62 > 100 µM | OVCAR-5 > 100 µM | SK-MEL-5 > 100 µM | OVCAR-8 > 100 µM | MDA-N > 100 µM | MOLT-4 > 100 µM | SF-295 > 100 µM | SN12C > 100 µM | NCI-H23 > 100 µM | OVCAR-3 > 100 µM | HCT-116 > 100 µM | SNB-75 > 100 µM | HOP-62 > 100 µM

C=C1OC2OC(C)C(NC(=O)OCC(Cl)(Cl)Cl)C(OC(C)=O)C2O1 (stereo not drawn)
inactive: NCI-H460 > 100 µM | SK-MEL-28 > 100 µM | SK-OV-3 > 100 µM | MDA-MB-231 > 100 µM | UACC-62 > 100 µM | OVCAR-5 > 100 µM | SK-MEL-5 > 100 µM | OVCAR-8 > 100 µM | MOLT-4 > 100 µM | SF-295 > 100 µM | SN12C > 100 µM | NCI-H23 > 100 µM | OVCAR-3 > 100 µM | HCT-116 > 100 µM | HOP-92 > 100 µM | HOP-62 > 100 µM | U-251 > 100 µM | BT-549 > 100 µM

CCOC(=O)[C@@H]1ON2O[C@H](OC3CCCCC3c3ccccc3)C[C@H]3OC(=O)[C@@H]1C32 (stereo partly drawn)
inactive: NCI-H460 39.8 µM | SK-OV-3 > 100 µM | MDA-MB-231 > 100 µM | UACC-62 > 100 µM | OVCAR-5 > 100 µM | SK-MEL-5 > 100 µM | OVCAR-8 > 100 µM | MDA-N > 100 µM | MOLT-4 > 100 µM | SF-295 > 100 µM | SN12C > 100 µM | NCI-H23 27 µM | OVCAR-3 > 100 µM | HCT-116 > 100 µM | SNB-75 > 100 µM | HOP-92 > 100 µM | HOP-62 > 100 µM | U-251 > 100 µM

Nc1ncnc2c1ncn2C1OC(CSCC(F)(F)F)C(O)C1O (stereo not drawn)
inactive: NCI-H460 > 100 µM | SK-MEL-28 > 100 µM | SK-OV-3 > 100 µM | UACC-62 > 100 µM | OVCAR-5 > 100 µM | SK-MEL-5 > 100 µM | OVCAR-8 > 100 µM | MOLT-4 > 100 µM | SF-295 > 100 µM | SN12C > 100 µM | NCI-H23 > 100 µM | OVCAR-3 > 100 µM | HCT-116 > 100 µM | SNB-75 > 100 µM | HOP-92 > 100 µM | HOP-62 > 100 µM | U-251 > 100 µM

CCCCOCc1cc(CN2CCN(C)CC2)c(O)c2ncccc12
inactive: NCI-H460 7.46 µM | SK-MEL-28 31.4 µM | SK-OV-3 67.6 µM | UACC-62 13.9 µM | OVCAR-5 24.4 µM | SK-MEL-5 4.02 µM | OVCAR-8 17.8 µM | MOLT-4 4.79 µM | SF-295 4.17 µM | SN12C 21.9 µM | NCI-H23 14.5 µM | OVCAR-3 7.59 µM | HCT-116 14.7 µM | SNB-75 52.7 µM | HOP-92 55.1 µM | HOP-62 14.4 µM | U-251 12.5 µM

CC1OC2=N[C@@H]1C(=O)N[C@@H](C(C)C)C1=N[C@H](C(=O)N[C@@H](C(C)C)C3=N[C@H](C(=O)N[C@@H](C(C)C)C4=N[C@H](C(=O)N[C@H]2C(C)C)C(C)O4)C(C)O3)C(C)O1 (stereo partly drawn)
inactive: NCI-H460 > 10 µM | SK-MEL-28 > 10 µM | SK-OV-3 > 10 µM | MDA-MB-231 > 10 µM | OVCAR-5 > 10 µM | SK-MEL-5 > 10 µM | OVCAR-8 > 10 µM | MDA-N > 10 µM | MOLT-4 > 10 µM | SF-295 > 10 µM | SN12C > 10 µM | NCI-H23 > 10 µM | OVCAR-3 > 10 µM | SNB-75 > 10 µM | HOP-92 > 10 µM | HOP-62 > 10 µM | U-251 > 10 µM
